Assay [1] concerns the target T1, human GPR52 (Homo sapiens, UniProt Q9Y2T5).
Description: (§1) Following BacMam infection, cells were pelleted by centrifugation (335 g, 5 min), resuspended in cell freezing medium (Sigma) and frozen at −150° C. until required. On experiment day, 25 nL GPR52 compound dilutions, prepared in DMSO, were stamped onto proxiplates (PerkinElmer) by a LabCyte ECHO acoustic dispenser. Frozen cells were thawed and resuspended in assay stimulation buffer (Cisbio) containing 0.5 mM 3-iso-butyl-1-methylxanthine (IBMX, Sigma) to achieve a density of 2000 cells per well. 10 μl cells were added to assay plates using a Multidrop Combi Reagent Dispenser (ThermoFisher) before centrifugation (335 g, 1 min). Cells were incubated with compounds at 37° C. for 30 min prior to addition of cAMP detection reagents (HiRange cAMP kit, Cisbio) which were prepared according to the manufacturer's instructions. Plates were shaken for 1 h at room temperature before reading on a PHERAstar FS plate reader (BMG Labtech) using standard HTRF settings.
In assay [2] the target is T1, human GPR52. Nature of the assay: GPR52 Agonist Functional cAMP Assay.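 As to all read-outs here: HEKf cells transduced with GPR52 BacMam for 24 h, 2000 per well, exposed to compounds 30 min at 37° C with 0.5 mM IBMX, cAMP read by HTRF.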 As to conditions: for EC50: pEC50 average, HEKf cells infected with human GPR52 BacMam virus, cAMP HTRF, 30 min at 37° C. In general terms: In TR-FRET formats the signal depends on donor and acceptor labels being close together.
Description: as §1
In assay [3] the test system is subchronic PCP induced cognitive deficit. Nature of the assay: Subchronic PCP-induced reversal learning deficit in rat. Type of assay: in vivo, female Lister Hooded rats. The settings on record: 6 mg/kg IP, 60 min prior to testing. The method, then: Testing was carried out in the light phase. Rats underwent operant training firstly to press the left/right lever for a food reward in the presence or absence of a visual cue, and then to respond to the opposite contingency. The reversal learning task was introduced as follows. On the day before each reversal task session, a full 30-minute operant training session was conducted in order to ensure stable responding. In the initial task, animals were first exposed to a five-minute period during which the contingency (cue position relative to active lever) was the same as for the operant training session. This was followed by a 2-minute time-out period, which was signalled by the house-light being turned off. In the subsequent 5-minute period (reversal task), the contingency was reversed. Responses made on the correct and incorrect levers were recorded. Animals undertook several of these reversal learning task sessions before the beginning of the drug studies in order to ensure that they attained a stable level of performance in both phases of the task. […] At this stage, training ceased and rats were treated with PCP (2 mg/kg, IP or vehicle 0.9% saline, IP) for 7 days followed by at least 7-days washout period.
In the initial phase, the reward contingency was the same as the previous day and in the reversal phase the reward contingency was reversed.
Data are presented as mean total number of lever presses (+SEM) and percent correct response (+SEM). […] Statistical significance was assumed when P<0.05 and was determined as follows: one-way ANOVA (IBM SPSS Statistics 22) was performed in order to detect main effect of drug treatment in the initial and reversal tasks. Where a significant effect was detected, a post-hoc LSD t-test was performed in order to compare treatment groups versus the appropriate control in the reversal phase of the test.
Data are shown as mean±s.e.m. % correct responding (n=8-10) and were analysed by ANOVA and post-hoc Student's t-test.
Data are shown as the mean total number of lever presses, correct responses are shown as clear bars and incorrect responses are shown as shaded bars (n=8-10).

The mark [4] stands for this setting: maximal response normalised to DMSO (0%) and maximal compound 7m (J. Med. Chem., 2014, 57, 5226) response (100%).

Where two headings read alike, the source gives them in different places.

The values that follow come from US20230002374A1, “GPR52 MODULATOR COMPOUNDS” (Heptares Therapeutics Limited, priority 2019, published 2023).

T1 sequence (Q9Y2T5 whole entry): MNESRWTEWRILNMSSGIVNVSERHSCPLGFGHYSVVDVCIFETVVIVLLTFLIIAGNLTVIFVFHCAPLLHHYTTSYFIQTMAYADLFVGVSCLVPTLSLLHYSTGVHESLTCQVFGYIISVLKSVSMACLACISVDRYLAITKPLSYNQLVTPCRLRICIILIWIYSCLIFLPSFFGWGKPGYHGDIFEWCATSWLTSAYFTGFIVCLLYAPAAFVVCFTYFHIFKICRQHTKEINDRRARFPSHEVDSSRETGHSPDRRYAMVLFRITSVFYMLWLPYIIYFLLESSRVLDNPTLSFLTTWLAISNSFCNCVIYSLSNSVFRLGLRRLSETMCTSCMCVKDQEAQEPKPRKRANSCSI

The EC50 is the concentration at which the effect is half-maximal. Regarding `O=C1NCCc2c1cnn2-c1ccnc(C(O)c2cc(F)cc(C(F)(F)F)c2)c1` (single isomer, unassigned) [Example 36 Isomer 1, 1-(2-((3-fluoro-5-(trifluoromethyl)phenyl)(hydroxy)methyl)pyridin-4-yl)-1,5,6,7-tetrahydro-4H-pyrazolo[4,3-c]pyridin-4-one], the “Emax (%)” value in assay [1] was 72%. The EC50 in assay [2] is 1580 nM.

As to `CC1Cc2c(cnn2-c2ccnc(Cc3cc(F)cc(C(F)(F)F)c3)c2)C(=O)N1` (single isomer, unassigned) [Example 40 Isomer 2, 1-(2-(3-fluoro-5-(trifluoromethyl)benzyl)pyridin-4-yl)-6-methyl-1,5,6,7-tetrahydro-4H-pyrazolo[4,3-c]pyridin-4-one], the “Emax (%)” value in assay [1] was 83%. Also, the midpoint of the response in assay [2], the EC50, lay at 126 nM.

For `Oc1cc2c(cc1O)C(c1ccccc1)CNCC2` (stereo not drawn) [SKF-38393, reference compound], the “effect on total number of lever presses” value in assay [3] (scPCP treated rats) is recorded as “no significant effects”. For the same compound, in assay [3] (vs vehicle-treated subchronic PCP group), the “reversal of subchronic PCP reversal learning deficit (percent correct responding, reversal phase)” value is on record as “significantly (P<0.05−P<0.001) reversed the deficit”.

Take `Cc1nn(-c2cc(C(O)c3cc(F)cc(C(F)(F)F)c3)ccn2)c2c1C(=O)NCC2` (single isomer, unassigned) [118 Isomer 2, 1-(4-((3-fluoro-5-(trifluoromethyl)phenyl)(hydroxy)methyl)pyridin-2-yl)-3-methyl-1,5,6,7-tetrahydro-4H-pyrazolo[4,3-c]pyridin-4-one]: the “Emax (%)” value in assay [1] was found to be 101%. The same compound gave an EC50 in assay [2] of 7.94 nM.

For `O=C1NCCc2c1cnn2-c1ccnc(C(O)c2cc(F)cc(C(F)(F)F)c2)c1` (single isomer, unassigned) [Example 36 Isomer 2, 1-(2-((3-fluoro-5-(trifluoromethyl)phenyl)(hydroxy)methyl)pyridin-4-yl)-1,5,6,7-tetrahydro-4H-pyrazolo[4,3-c]pyridin-4-one], the “Emax (%)” value in assay [1] was 94%. Besides, the midpoint of the response in assay [2], the EC50, lay at 251 nM.

Broadly, the Emax is the size of the effect at its maximum, as opposed to the concentration needed. For `O=C1NCCCc2nn(-c3cc(Cc4cccc(C(F)(F)F)c4)ccn3)nc21` [Example 45, 2-(4-(3-(trifluoromethyl)benzyl)pyridin-2-yl)-5,6,7,8-tetrahydro-[1,2,3]triazolo[4,5-c]azepin-4(2H)-one], the Emax in assay [2] (setting [4]) came to 75%. Moreover, it took 631 nM to reach a half-maximal effect in assay [2] (EC50).

`O=C1NCCOc2c1cnn2-c1cc(Cc2cccc(C(F)(F)F)c2)ccn1` [Example 13, 1-(4-(3-(trifluoromethyl)benzyl)pyridin-2-yl)-6,7-dihydro-1H-pyrazolo[4,3-f][1,4]oxazepin-4(5H)-one] showed an Emax in assay [2] (setting [4]) of 89%. Moreover, a half-maximal effect in assay [2] (EC50) was put at 25.1 nM.

`N#Cc1nn(-c2ccnc(Cc3cc(F)cc(C(F)(F)F)c3)c2)c2c1C(=O)NCC2` [Example 115, 1-(2-(3-fluoro-5-(trifluoromethyl)benzyl)pyridin-4-yl)-4-oxo-4,5,6,7-tetrahydro-1H-pyrazolo[4,3-c]pyridine-3-carbonitrile]: in assay [2] (setting [4]), the Emax was 91%. The same compound gave an EC50 in assay [2] of 25.1 nM.

For the compound `CC(C)c1cc(F)cc(Cc2cc(-n3ncc4c3CCNC4=O)ccn2)c1` [Example 71, 1-(2-(3-fluoro-5-isopropylbenzyl)pyridin-4-yl)-1,5,6,7-tetrahydro-4H-pyrazolo[4,3-c]pyridin-4-one], the Emax in assay [2] (setting [4]) turned out to be 91%. Besides, the EC50 in assay [2] was 20 nM.

Compound `COc1ncc(Cc2cc(-n3nc(C)c4c3CCNC4=O)ccn2)cc1F` [Example 93, 1-(2-((5-fluoro-6-methoxypyridin-3-yl)methyl)pyridin-4-yl)-3-methyl-1,5,6,7-tetrahydro-4H-pyrazolo[4,3-c]pyridin-4-one] came in with an Emax in assay [2] (setting [4]) of 83%. In assay [2], this compound had an EC50 of 100 nM.

`Cc1nn(-c2ccnc(Cc3cc(Cl)c(F)c(C(F)(F)F)c3)c2)c2c1C(=O)NCC2` [Example 88, 1-(2-(3-chloro-4-fluoro-5-(trifluoromethyl)benzyl)pyridin-4-yl)-3-methyl-1,5,6,7-tetrahydro-4H-pyrazolo[4,3-c]pyridin-4-one] returned a maximal effect (Emax) in assay [2] (setting [4]) of 100%. Moreover, the concentration for a half-maximal effect (EC50) in assay [2] was 5.01 nM.

With `O=C1NCCc2c1cnn2-c1ccnc(C(F)(F)c2cc(F)cc(C(F)(F)F)c2)c1` [Example 38, 1-(2-(difluoro(3-fluoro-5-(trifluoromethyl)phenyl)methyl)pyridin-4-yl)-1,5,6,7-tetrahydro-4H-pyrazolo[4,3-c]pyridin-4-one], in assay [2] (setting [4]), the Emax was 55%. Further, the response in assay [2] was half-maximal at 631 nM (EC50).

`O=C1NCCc2c1cnn2-c1ccnc(Cc2cc(F)cc(F)c2)c1` [Example 21, 1-(2-(3,5-difluorobenzyl)pyridin-4-yl)-1,5,6,7-tetrahydro-4H-pyrazolo[4,3-c]pyridin-4-one] displayed an Emax in assay [2] (setting [4]) of 100%. For the same compound, in assay [2], the EC50 was 1260 nM.

As to `O=C1NCCc2c1cnn2-c1ccnc(Cc2cc3ccccc3s2)c1` [Example 69, 1-(2-(benzo[b]thiophen-2-ylmethyl)pyridin-4-yl)-1,5,6,7-tetrahydro-4H-pyrazolo[4,3-c]pyridin-4-one], the Emax in assay [2] (setting [4]) was 60%. In assay [2], the EC50 was 126 nM.

As to `N#Cc1cc(F)cc(Cc2cc(-n3ncc4c3CCNC4=O)ccn2)c1` [Example 96, 3-fluoro-5-((4-(4-oxo-4,5,6,7-tetrahydro-1H-pyrazolo[4,3-c]pyridin-1-yl)pyridin-2-yl)methyl)benzonitrile], in assay [2] (setting [4]), the Emax came out at 94%. In assay [2], the EC50 was 794 nM.

In assay [2] (setting [4]), `O=C1NCCc2c1cnn2-c1cc(Cc2cc(F)cc(C(F)(F)F)c2)ncn1` [Example 56, 1-(6-(3-fluoro-5-(trifluoromethyl)benzyl)pyrimidin-4-yl)-1,5,6,7-tetrahydro-4H-pyrazolo[4,3-c]pyridin-4-one] registered a maximal effect (Emax) of 98%. This compound also gave a half-maximal effective concentration (EC50) in assay [2] of 126 nM.

Compound `O=C1NCCc2c1cnn2-c1ccnc(Cc2cc(F)c(C(F)(F)F)c(F)c2)c1` [Example 70, 1-(2-(3,5-difluoro-4-(trifluoromethyl)benzyl)pyridin-4-yl)-1,5,6,7-tetrahydro-4H-pyrazolo[4,3-c]pyridin-4-one] yielded an Emax in assay [2] (setting [4]) of 74%. The compound also gave an EC50 in assay [2] of 316 nM.

For the compound `Cc1nn(-c2ccnc(Cc3cc(F)cc(C#N)c3)c2)c2c1C(=O)NCC2` [Example 85, 3-fluoro-5-((4-(3-methyl-4-oxo-4,5,6,7-tetrahydro-1H-pyrazolo[4,3-c]pyridin-1-yl)pyridin-2-yl)methyl)benzonitrile], the Emax in assay [2] (setting [4]) stood at 96%. A half-maximal response in assay [2] (EC50) required 63.1 nM.

In assay [2] (setting [4]), `Cc1nn(-c2ccnc(Cc3cc(F)c(F)c(C(F)(F)F)c3)c2)c2c1C(=O)NCC2` [Example 86, 1-(2-(3,4-difluoro-5-(trifluoromethyl)benzyl)pyridin-4-yl)-3-methyl-1,5,6,7-tetrahydro-4H-pyrazolo[4,3-c]pyridin-4-one] displayed an Emax of 102%. A half-maximal response in assay [2] (EC50) required 3.16 nM.

In assay [2] (setting [4]), `O=C1NCCc2c1cnn2-c1ccnc(Cc2ccc(OC(F)F)c(F)c2)c1` [Example 63, 1-(2-(4-(difluoromethoxy)-3-fluorobenzyl)pyridin-4-yl)-1,5,6,7-tetrahydro-4H-pyrazolo[4,3-c]pyridin-4-one] showed an Emax of 70%. Also, in assay [2], the midpoint of the response, the EC50, lay at 126 nM.

In assay [2], `O=C1NCCc2c1cnn2-c1ccnc(Cc2ccc(Cl)cc2)c1` [Example 19, 1-(2-(4-chlorobenzyl)pyridin-4-yl)-1,5,6,7-tetrahydro-4H-pyrazolo[4,3-c]pyridin-4-one] showed an Emax of 73% and an EC50 of 631 nM.

Regarding `Cc1nn(-c2ccnc(C(O)c3cc(F)cc(C(F)(F)F)c3)c2)c2c1C(=O)NCC2` (single isomer, unassigned) [117 Isomer 2, 1-(2-((3-fluoro-5-(trifluoromethyl)phenyl)(hydroxy)methyl)pyridin-4-yl)-3-methyl-1,5,6,7-tetrahydro-4H-pyrazolo[4,3-c]pyridin-4-one], the “Emax (%)” value in assay [1] was found to be 103%. The same compound had an EC50 in assay [2] of 25.1 nM.

`O=C1NCCc2c1cnn2-c1ccnc(Cc2cc(Cl)cc(Cl)c2)c1` [Example 31, 1-(2-(3,5-dichlorobenzyl)pyridin-4-yl)-1,5,6,7-tetrahydro-4H-pyrazolo[4,3-c]pyridin-4-one] yielded an Emax in assay [2] (setting [4]) of 95%. The EC50 in assay [2] is 126 nM.

`O=C1NCCc2c1cnn2-c1ccnc(Cc2ccc(F)c(C(F)(F)F)c2)c1` [Example 23, 1-(2-(4-fluoro-3-(trifluoromethyl)benzyl)pyridin-4-yl)-1,5,6,7-tetrahydro-4H-pyrazolo[4,3-c]pyridin-4-one] came in with an Emax in assay [2] (setting [4]) of 90%. The compound also showed an EC50 in assay [2] of 158 nM.
